Measurements taken from patent US12134616B2, “Tricyclic pesticidal compounds” (BASF SE, priority 2018, dated 2024).

How the values were obtained:
Format in all cases: in vivo
[1] = system: boll weevil (Anthonomus grandis); assay: Boll weevil (Anthonomus grandis) microtiter diet test, egg and larval mortality; settings: 120 h, sprayed onto insect diet, 5 days, read-out: mortality (egg and larval) in comparison with untreated controls
Description: (§1) If not otherwise specified, the test solutions are prepared as follows: The active compound is dissolved at the desired concentration in a mixture of 1:1 (vol:vol) distilled water:acteone. The test solution is prepared at the day of use. Test solutions are prepared in general at concentrations of 1000 ppm, 500 ppm, 300 ppm, 100 ppm and 30 ppm (wt/vol).
For evaluating control of boll weevil (Anthonomus grandis) the test unit consisted of 96-well-microtiter plates containing an insect diet and 5-10 A. grandis eggs. The compounds were formulated using a solution containing 75% v/v water and 25% v/v DMSO. Different concentrations of formulated compounds were sprayed onto the insect diet at 5 μl, using a custom built micro atomizer, at two replications. After application, microtiter plates were incubated at about 25±1° C. and about 75±5% relative humidity for 5 days. Egg and larval mortality was then visually assessed.

[2] = system: green peach aphid (Myzus persicae); assay: Green peach aphid (Myzus persicae) artificial diet/membrane test, systemic; settings: 72 h, pipetted into aphid diet, 3 days, read-out: mortality (aphid) in comparison with untreated controls
Description: as §1
For evaluating control of green peach aphid (Myzus persicae) through systemic means the test unit consisted of 96-well-microtiter plates containing liquid artificial diet under an artificial membrane. The compounds were formulated using a solution containing 75% v/v water and 25% v/v DMSO. Different concentrations of formulated compounds were pipetted into the aphid diet, using a custom built pipetter, at two replications. After application, 5-8 adult aphids were placed on the artificial membrane inside the microtiter plate wells. The aphids were then allowed to suck on the treated aphid diet and incubated at about 23±1° C. and about 50±5% relative humidity for 3 days. Aphid mortality and fecundity was then visually assessed.

[3] = system: vetch aphid (Megoura viciae); assay: Vetch aphid (Megoura viciae) broad bean leaf disk test, contact or systemic; settings: foliar, 120 h, sprayed onto leaf disks, 5 days, read-out: mortality (aphid) in comparison with untreated controls
Description: as §1
For evaluating control of vetch aphid (Megoura viciae) through contact or systemic means the test unit consisted of 24-well-microtiter plates containing broad bean leaf disks.
The compounds were formulated using a solution containing 75% v/v water and 25% v/v DMSO. Different concentrations of formulated compounds were sprayed onto the leaf disks at 2.5 μl, using a custom built micro atomizer, at two replications. After application, the leaf disks were air-dried and 5-8 adult aphids placed on the leaf disks inside the microtiter plate wells. The aphids were then allowed to suck on the treated leaf disks and incubated at about 23±1° C. and about 50±5% relative humidity for 5 days. Aphid mortality and fecundity was then visually assessed.

[4] = system: tobacco budworm (Heliothis virescens); assay: Tobacco budworm (Heliothis virescens) microtiter diet test, egg and larval mortality; settings: 120 h, sprayed onto insect diet, 5 days, read-out: mortality (egg and larval) in comparison with untreated controls
Description: as §1
For evaluating control of tobacco budworm (Heliothis virescens) the test unit consisted of 96-well-microtiter plates containing an insect diet and 15-25 H. virescens eggs. The compounds were formulated using a solution containing 75% v/v water and 25% v/v DMSO. Different concentrations of formulated compounds were sprayed onto the insect diet at 10 μl, using a custom built micro atomizer, at two replications. After application, microtiter plates were incubated at about 28±1° C. and about 80±5% relative humidity for 5 days. Egg and larval mortality was then visually assessed.

Measured: mortality at 2500 ppm

CCS(=O)(=O)c1cccnc1-c1nc2cc(C(F)(F)F)c3ccccc3n2n1 [Compound I.65, 2-(3-ethylsulfonyl-2-pyridyl)-5-(trifluoromethyl)-[1,2,4]triazolo[1,5-a]quinoline]
> 75%: all assays above

CCS(=O)(=O)c1cccnc1-c1cn2c(ccc3c(C(F)(F)F)cc(C(F)(F)F)nc32)n1 [Compound I.54, 8-(3-ethylsulfonyl-2-pyridyl)-2,4-bis(trifluoromethyl)imidazo[1,2-a][1,8]naphthyridine]
> 75%: [1] | [3] | [4]

CCSc1cc(C(F)(F)F)cnc1-c1nc2cnc3c(OC(F)(F)F)cccc3c2n1C [Compound I.5, 2-[3-ethylsulfanyl-5-(trifluoromethyl)-2-pyridyl]-1-methyl-6-(trifluoromethoxy)imidazo[4,5-c]quinoline]
> 75%: [1] | [4]

CCS(=O)(=O)c1cc(C(F)(F)F)cnc1-c1nc2cnc3c(OC(F)(F)F)cccc3c2n1C [Compound I.1, 2-[3-ethylsulfonyl-5-(trifluoromethyl)-2-pyridyl]-1-methyl-6-(trifluoromethoxy)imidazo[4,5-c]quinoline]
> 75%: all assays above
